Test results published in PubChem BioAssay (NCI).
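A five-concentration, 48-hour dose response in 96-well plates underlies each endpoint, interpolated linearly between surrounding concentrations. At the TGI there is no net growth.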

Columns and labels:
Assay in all cases: NCI anticancer screen, dose series, 48 h
[1] = test system: HOP-62 NSCLC
[2] = test system: OVCAR-3 ovarian
[3] = test system: MOLT-4 leukemia
[4] = test system: UO-31 renal
[5] = test system: TK-10 renal
[6] = test system: SK-MEL-5 melanoma
[7] = test system: HT29 colon
[8] = test system: UACC-257 melanoma
[9] = test system: MCF7 breast
[10] = test system: U251 CNS
[11] = test system: NCI-H23 lung
[12] = test system: UACC-62 melanoma
[13] = test system: HCT-116 colon
[14] = test system: OVCAR-4 ovarian
[15] = test system: COLO 205 colon
[16] = test system: HL-60(TB) leukemia
[17] = test system: HOP-92 NSCLC
[18] = test system: HCT-15 colon
[19] = test system: SNB-75 CNS
[20] = test system: RPMI-8226 leukemia
[21] = test system: SF-295 CNS
[22] = test system: K-562 leukemia
[23] = test system: MDA-MB-435
[24] = test system: SK-MEL-28 melanoma
[25] = test system: RXF 393 renal
[26] = test system: CCRF-CEM leukemia
[27] = test system: MDA-N
[28] = test system: SK-MEL-2 melanoma
[29] = test system: NCI-H460 lung
[30] = test system: PC-3 prostate
[31] = test system: NCI-H226 lung
[32] = test system: SN12C renal
[33] = test system: NCI/ADR-RES ovarian
[34] = test system: LOX IMVI melanoma
[35] = test system: T-47D breast
[36] = test system: OVCAR-5 ovarian
[37] = test system: KM12 colon
[38] = test system: IGROV1 ovarian
[39] = test system: HCC-2998 colon
[40] = test system: HS 578T breast
[41] = test system: MALME-3M melanoma
[42] = test system: OVCAR-8 ovarian
[43] = test system: SW-620 colon
[44] = test system: DU-145 prostate
[45] = test system: BT-549 breast
[46] = test system: SNB-19 CNS
[47] = test system: SR leukemia
[48] = test system: CAKI-1 renal
[49] = test system: M14 melanoma
[50] = test system: A498 renal
[51] = test system: MDA-MB-231 breast
[52] = test system: A549 NSCLC
[53] = test system: SK-OV-3 ovarian
[54] = test system: 786-0 renal
[55] = test system: EKVX NSCLC
[56] = test system: SF-268 CNS
[57] = test system: ACHN renal
[58] = test system: SF-539 CNS

With Cc1[nH]c(=O)[nH]c(=S)c1C(=O)NC1C2CCCCC2NC2CCCCC21 (stereo unspecified) the TGI [1] was 32.9 µM, the TGI [2] was 29.5 µM and the TGI [3] was 43.9 µM. It also gave a TGI [4] of 26.7 µM, a TGI [5] of 30.6 µM and a TGI [6] of 33.3 µM. The TGI [7] was 48 µM, the TGI [8] was 33.5 µM and the TGI [9] was 37.2 µM. The TGI [10] was 27.1 µM, the TGI [11] was 29.8 µM and the TGI [12] was 16.3 µM. It also gave a TGI [13] of 31 µM, a TGI [14] of 50.7 µM and a TGI [15] of 39.5 µM. It also gave a TGI [16] of over 100 µM, a TGI [17] of 33.6 µM and a TGI [18] of 25.9 µM. For the same compound, the TGI [19] was 32.3 µM, the TGI [20] was over 100 µM and the TGI [21] was 32.8 µM. The TGI [22] was over 100 µM, the TGI [23] was 20.7 µM and the TGI [24] was 23.8 µM. For the same compound, the TGI [25] was 27.6 µM, the TGI [26] was 36.2 µM and the TGI [27] was 34.9 µM. The TGI [28] was 36.6 µM, the TGI [29] was 31.6 µM and the TGI [30] was 29.4 µM. For the same compound, the TGI [31] was 33.2 µM, the TGI [32] was 58 µM and the TGI [33] was 40.2 µM. The TGI [34] was 64 µM, the TGI [35] was 43.8 µM and the TGI [36] was 34.1 µM. For the same compound, the TGI [37] was 34.4 µM, the TGI [38] was 33.2 µM and the TGI [39] was 84.6 µM. The TGI [40] was 61.8 µM, the TGI [41] was 46.8 µM and the TGI [42] was 36.2 µM. It also gave a TGI [43] of 40.2 µM, a TGI [44] of 26.6 µM and a TGI [45] of 32.8 µM. The TGI [46] was 29.7 µM, the TGI [47] was over 100 µM and the TGI [48] was 33.7 µM. For the same compound, the TGI [49] was 29.6 µM, the TGI [50] was 41.2 µM and the TGI [51] was 33.1 µM.
Work on Cn1c(-c2ccccc2)cc(-c2ccsc2)c1-c1ccsc1 yielded a TGI [1] of over 100 µM, a TGI [2] of over 100 µM and a TGI [3] of over 100 µM. It also gave a TGI [4] of over 100 µM, a TGI [5] of over 100 µM and a TGI [6] of over 100 µM. It also gave a TGI [52] of over 100 µM, a TGI [7] of over 100 µM and a TGI [8] of over 100 µM. It also gave a TGI [9] of over 100 µM, a TGI [10] of over 100 µM and a TGI [11] of over 100 µM. The TGI [12] was over 100 µM, the TGI [13] was over 100 µM and the TGI [53] was over 100 µM. The TGI [14] was over 100 µM, the TGI [54] was over 100 µM and the TGI [15] was over 100 µM. It also gave a TGI [16] of over 100 µM, a TGI [17] of over 100 µM and a TGI [18] of over 100 µM. For the same compound, the TGI [19] was over 100 µM, the TGI [20] was over 100 µM and the TGI [21] was over 100 µM. It also gave a TGI [22] of over 100 µM, a TGI [23] of over 100 µM and a TGI [24] of over 100 µM. The TGI [55] was over 100 µM, the TGI [25] was over 100 µM and the TGI [26] was over 100 µM. It also gave a TGI [27] of over 100 µM, a TGI [56] of over 100 µM and a TGI [28] of over 100 µM. The TGI [29] was over 100 µM, the TGI [30] was over 100 µM and the TGI [31] was over 100 µM. The TGI [32] was over 100 µM, the TGI [33] was over 100 µM and the TGI [34] was over 100 µM. For the same compound, the TGI [35] was over 100 µM, the TGI [36] was over 100 µM and the TGI [37] was over 100 µM. The TGI [57] was over 100 µM, the TGI [38] was over 100 µM and the TGI [39] was over 100 µM. For the same compound, the TGI [40] was over 100 µM, the TGI [42] was over 100 µM and the TGI [43] was over 100 µM. For the same compound, the TGI [44] was over 100 µM, the TGI [45] was over 100 µM and the TGI [46] was over 100 µM. For the same compound, the TGI [47] was over 100 µM, the TGI [48] was over 100 µM and the TGI [49] was over 100 µM. For the same compound, the TGI [50] was over 100 µM, the TGI [58] was over 100 µM and the TGI [51] was over 100 µM.
O=c1c(Cc2c(O)ccc3ccccc23)nnc2sc(-c3nn4c(=O)c(Cc5c(O)ccc6ccccc56)nnc4s3)nn12 was tested, and the TGI [1] was over 100 µM, the TGI [2] was over 100 µM and the TGI [4] was over 100 µM. For the same compound, the TGI [5] was over 100 µM, the TGI [52] was over 100 µM and the TGI [7] was over 100 µM. It also gave a TGI [8] of over 100 µM, a TGI [9] of over 100 µM and a TGI [10] of over 100 µM. The TGI [11] was over 100 µM, the TGI [12] was over 100 µM and the TGI [13] was over 100 µM. The TGI [14] was over 100 µM, the TGI [54] was over 100 µM and the TGI [16] was over 100 µM. The TGI [17] was over 100 µM, the TGI [18] was over 100 µM and the TGI [19] was 39.9 µM. It also gave a TGI [20] of over 100 µM, a TGI [22] of over 100 µM and a TGI [23] of over 100 µM. For the same compound, the TGI [55] was over 100 µM, the TGI [25] was 84.4 µM and the TGI [26] was 96.3 µM. For the same compound, the TGI [27] was over 100 µM, the TGI [56] was over 100 µM and the TGI [28] was 40.3 µM. For the same compound, the TGI [30] was over 100 µM, the TGI [32] was over 100 µM and the TGI [33] was over 100 µM. It also gave a TGI [34] of over 100 µM, a TGI [35] of over 100 µM and a TGI [36] of over 100 µM. For the same compound, the TGI [57] was over 100 µM, the TGI [38] was over 100 µM and the TGI [39] was over 100 µM. For the same compound, the TGI [40] was over 100 µM, the TGI [41] was over 100 µM and the TGI [42] was over 100 µM. It also gave a TGI [43] of over 100 µM, a TGI [44] of over 100 µM and a TGI [45] of over 100 µM. For the same compound, the TGI [46] was over 100 µM, the TGI [47] was over 100 µM and the TGI [48] was over 100 µM. It also gave a TGI [49] of over 100 µM, a TGI [50] of over 100 µM and a TGI [51] of over 100 µM.
